Data as given in PMC5797045, “Characterization of CDK(5) inhibitor, 20-223 (aka CP668863) for colorectal cancer therapy” (Oncotarget, 2017).

Key:
CDK2 = biological target: T1, CDK2 (Homo sapiens, UniProt P24941); assay: cell-free kinase assay, 10-point dose response; assay type: biochemical
T1 construct: with Cyclin E

CDK5 = biological target: T2, CDK5 (Homo sapiens, UniProt Q00535); assay: cell-free kinase assay, 10-point dose response; assay type: biochemical
T2 construct: with p35
T2 sequence (Q00535 whole entry): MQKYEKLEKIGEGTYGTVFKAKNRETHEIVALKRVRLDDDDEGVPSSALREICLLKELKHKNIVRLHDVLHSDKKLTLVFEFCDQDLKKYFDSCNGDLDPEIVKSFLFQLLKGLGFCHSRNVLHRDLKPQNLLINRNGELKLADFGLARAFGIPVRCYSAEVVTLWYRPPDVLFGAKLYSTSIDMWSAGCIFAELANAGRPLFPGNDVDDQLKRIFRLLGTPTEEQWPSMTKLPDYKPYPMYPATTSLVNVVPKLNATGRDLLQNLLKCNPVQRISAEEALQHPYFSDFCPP
T2 sequence (Q15078 2-307 partner): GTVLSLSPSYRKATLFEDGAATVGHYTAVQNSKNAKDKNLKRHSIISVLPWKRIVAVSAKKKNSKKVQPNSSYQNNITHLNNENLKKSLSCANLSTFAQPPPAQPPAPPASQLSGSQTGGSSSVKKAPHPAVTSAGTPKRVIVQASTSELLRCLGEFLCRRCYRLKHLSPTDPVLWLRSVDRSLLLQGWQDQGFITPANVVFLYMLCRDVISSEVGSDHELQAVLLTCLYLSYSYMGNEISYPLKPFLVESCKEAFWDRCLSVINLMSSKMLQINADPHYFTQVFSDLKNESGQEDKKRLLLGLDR

Work on `O=C(Cc1ccc2ccccc2c1)Nc1cc(C2CCC2)[nH]n1` [20-223] yielded an IC50 (CDK2) of 6 nM and an IC50 (CDK5) of 8.8 nM.
